Drawing on ChEMBL document CHEMBL4831533, “Novel Substituted 1,6-Naphthyridines as CDK 5 Inhibitors for Treating Kidney Diseases” (ACS Med Chem Lett, 2021), this text covers IC50 for 6 compounds.

As a reminder, the IC50 is the midpoint of a concentration-inhibition curve.

In this assay the target is Cyclin-dependent kinase 5/CDK5 activator 1 (Homo sapiens, UniProt Q00535). In words: Inhibition of full length human CDK5 (1 to 292 residues)/p25 expressed in baculovirus expression system using FL peptide 29 as a substrate preincubated for 30 mins followed by substrate addition incubated for 60 mins in the presence of ATP by mobility shift assay.
Cyclin-dependent kinase 5/CDK5 activator 1, sequence (Q00535 whole entry, the tested form may be a part): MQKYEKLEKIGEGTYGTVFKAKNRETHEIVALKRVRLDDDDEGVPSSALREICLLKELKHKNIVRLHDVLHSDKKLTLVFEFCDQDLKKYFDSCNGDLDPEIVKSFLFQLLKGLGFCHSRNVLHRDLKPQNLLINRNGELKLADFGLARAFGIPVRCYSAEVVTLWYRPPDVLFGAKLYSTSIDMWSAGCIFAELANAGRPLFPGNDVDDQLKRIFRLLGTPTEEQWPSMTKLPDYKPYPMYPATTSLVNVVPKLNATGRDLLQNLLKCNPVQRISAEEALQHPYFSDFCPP
Cyclin-dependent kinase 5/CDK5 activator 1, sequence (Q15078 whole entry, further chain, the tested form may be a part): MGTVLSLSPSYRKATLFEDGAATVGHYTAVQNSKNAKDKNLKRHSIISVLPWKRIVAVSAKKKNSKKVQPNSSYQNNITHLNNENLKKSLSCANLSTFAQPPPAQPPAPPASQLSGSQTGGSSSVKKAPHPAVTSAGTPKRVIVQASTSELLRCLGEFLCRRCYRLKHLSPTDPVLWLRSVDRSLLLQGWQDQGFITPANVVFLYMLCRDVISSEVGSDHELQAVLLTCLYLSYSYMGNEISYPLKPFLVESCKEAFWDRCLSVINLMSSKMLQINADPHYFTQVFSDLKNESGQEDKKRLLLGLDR
For the compound `CCOC(=O)c1cccc(Nc2cc3nc(SC4CCNCC4)ccc3cn2)c1`, the IC50 is less than 10 nM.
In the case of `CN1CCC(S(=O)(=O)c2ccc3cnc(Nc4ccc(N5CCCS5(=O)=O)cc4)cc3n2)CC1`, the IC50 was less than 10 nM.
As for `CN1CCC([C@@](C)(O)c2ccc3cnc(Nc4cccc(C(N)=O)c4)cc3n2)CC1`, the figure is less than 10 nM.
As for `CN1CCC(N(CC(=O)O)c2ccc3cnc(Nc4cccc(S(N)(=O)=O)c4)cc3n2)CC1`, the figure is less than 10 nM.
For `CN1CCC([C@@](C)(O)c2ccc3cnc(Nc4ccc(S(C)(=O)=O)cc4)cc3n2)CC1`, the IC50 was less than 10 nM.
Then `CN1CCC(C(=O)c2ccc3cnc(Nc4ccc(-n5cccn5)cc4F)cc3n2)CC1`, with less than 10 nM.
